Reference: US20030144225A1, “Antisense modulation of macrophage inflammatory protein 3-alpha expression” (priority 2001, published 2003)
Strand notation (5' to 3'): a small letter for the sugar, then the base; units joined by * are phosphorothioate-linked, units joined directly phosphodiester-linked; [ ] holds rarer units or linkages, { } end groups; capitals alone tell only the bases. e = 2'-O-(2-methoxyethyl) (MOE); [5mC] = 5-methylcytosine; d = 2'-deoxy (DNA)

Assays:
[1] = test system: human macrophage inflammatory protein 3-alpha mRNA; assay: Antisense inhibition of human macrophage inflammatory protein 3-alpha mRNA levels, quantitative real-time PCR (Table 1 screen); format: cell-based; details: averages from two experiments, oligonucleotide concentration not given
[2] = test system: human macrophage inflammatory protein 3-alpha mRNA; assay: Dose-response inhibition of cytokine-induced macrophage inflammatory protein 3-alpha mRNA expression in NHEK cells; format: cell-based; details: 24 Hr after oligonucleotide treatment, percent inhibition of cytokine-induced control, averages from two experiments; for % Inhibition of cytokine induced macrophage inflammatory protein 3-alpha mRNA expression, 50 nM: 50 nM oligonucleotide; for % Inhibition of cytokine induced macrophage inflammatory protein 3-alpha mRNA expression, 100 nM: 100 nM oligonucleotide; for % Inhibition of cytokine induced macrophage inflammatory protein 3-alpha mRNA expression, 200 nM: 200 nM oligonucleotide

Row | Substance | % INHIB (inhibition of human macrophage inflammatory protein 3-alpha mRNA levels) [1] | % Inhibition of cytokine induced macrophage inflammatory protein 3-alpha mRNA expression, 50 nM [2] | % Inhibition of cytokine induced macrophage inflammatory protein 3-alpha mRNA expression, 100 nM [2] | % Inhibition of cytokine induced macrophage inflammatory protein 3-alpha mRNA expression, 200 nM [2]
1 | 150677 (antisense eT*eA*e[5mC]*e[5mC]*e[5mC]*dA*dG*dT*dT*d[5mC]*dT*dT*dT*dG*dG*eG*eA*eG*eT*eG) [compound 150677] | 0% | – | – | –
2 | 150678 (antisense eA*eG*eT*eG*eT*dT*dG*dA*dG*dT*dA*d[5mC]*d[5mC]*d[5mC]*dA*eG*eT*eT*e[5mC]*eT) [compound 150678] | 34% | – | – | –
3 | 150679 (antisense eA*eG*eA*eT*e[5mC]*dT*dG*d[5mC]*dT*d[5mC]*dA*dG*dT*dG*dT*eT*eG*eA*eG*eT) [compound 150679] | 16% | – | – | –
4 | 150680 (antisense e[5mC]*eT*e[5mC]*eA*eA*dA*dG*dA*dA*d[5mC]*dA*dG*dA*dT*d[5mC]*eT*eG*e[5mC]*eT*e[5mC]) [compound 150680] | 41% | 13% | 47% | 68%
5 | 150681 (antisense eT*eG*eG*eT*eT*dT*dT*dT*dA*dG*d[5mC]*dT*d[5mC]*dA*dA*eA*eG*eA*eA*e[5mC]) [compound 150681] | 22% | – | – | –
6 | 150683 (antisense eA*eA*eG*eT*eT*dG*d[5mC]*dT*dT*dG*d[5mC]*dT*dG*d[5mC]*dT*eT*e[5mC]*eT*eG*eA) [compound 150683] | 15% | – | – | –
7 | 150684 (antisense e[5mC]*eA*eG*e[5mC]*eA*dG*dT*d[5mC]*dA*dA*dA*dG*dT*dT*dG*e[5mC]*eT*eT*eG*e[5mC]) [compound 150684] | 15% | – | – | –
8 | 150685 (antisense eG*eT*eG*eT*eG*dA*dA*dA*dG*dA*dT*dG*dA*dT*dA*eG*e[5mC]*eA*eT*eT) [compound 150685] | 0% | – | – | –
9 | 150686 (antisense eA*eT*eT*e[5mC]*e[5mC]*dA*dG*dA*dA*dA*dA*dG*d[5mC]*d[5mC]*dA*e[5mC]*eA*eG*eT*eT) [compound 150686] | 1% | – | – | –
10 | 150687 (antisense eG*eT*e[5mC]*e[5mC]*eA*dA*dT*dT*d[5mC]*d[5mC]*dA*dT*dT*d[5mC]*d[5mC]*eA*eG*eA*eA*eA) [compound 150687] | 34% | 19% | 51% | 65%
11 | 150688 (antisense e[5mC]*eT*eT*eG*eG*dG*d[5mC]*dT*dA*dT*dG*dT*d[5mC]*d[5mC]*dA*eA*eT*eT*e[5mC]*e[5mC]) [compound 150688] | 46% | 43% | 69% | 80%
12 | 150689 (antisense e[5mC]*eA*eA*eG*eG*dT*dT*d[5mC]*dT*dT*dT*d[5mC]*dT*dG*dT*eT*e[5mC]*eT*eT*eG) [compound 150689] | 41% | 16% | 60% | 77%
13 | 150692 (antisense eG*e[5mC]*eA*eA*eT*dA*dT*dG*dA*dA*dT*d[5mC]*dA*dA*d[5mC]*eT*eT*e[5mC]*eA*eT) [compound 150692] | 39% | 34% | 59% | 73%
14 | 150693 (antisense eA*e[5mC]*eT*eA*eT*dG*dA*dT*dG*d[5mC]*dA*dA*dT*dA*dT*eG*eA*eA*eT*e[5mC]) [compound 150693] | 29% | 25% | 58% | 63%
15 | 150694 (antisense eA*eT*eG*eT*eG*dA*dT*dG*d[5mC]*dT*dT*dA*dA*dA*d[5mC]*eA*eA*eA*eG*e[5mC]) [compound 150694] | 30% | – | – | –
16 | 150695 (antisense e[5mC]*eA*e[5mC]*eA*eG*dA*dA*dA*dA*d[5mC]*d[5mC]*dT*dA*d[5mC]*dA*eG*e[5mC]*eT*eA*eT) [compound 150695] | 11% | – | – | –

Row | Substance | % INHIB (inhibition of human macrophage inflammatory protein 3-alpha mRNA levels) [1] | % Inhibition of cytokine induced macrophage inflammatory protein 3-alpha mRNA expression, 50 nM [2] | % Inhibition of cytokine induced macrophage inflammatory protein 3-alpha mRNA expression, 100 nM [2] | % Inhibition of cytokine induced macrophage inflammatory protein 3-alpha mRNA expression, 200 nM [2]
17 | 150696 (antisense eG*e[5mC]*eA*e[5mC]*eT*dA*dA*dA*d[5mC]*d[5mC]*dA*dA*dA*dA*dT*eA*eG*e[5mC]*eT*eT) [compound 150696] | 27% | – | – | –
18 | 150697 (antisense eG*e[5mC]*eA*eA*eG*dA*dA*dA*dG*dT*d[5mC]*d[5mC]*dA*dT*dA*eT*eA*eA*eT*e[5mC]) [compound 150697] | 18% | – | – | –
19 | 150698 (antisense eG*e[5mC]*eA*eA*eT*dT*dA*d[5mC]*dA*dA*d[5mC]*dA*dA*dT*dT*eT*eA*eG*eG*eA) [compound 150698] | 21% | – | – | –
20 | ISIS 150678: 2′-MOE gapmer, phosphorothioate, 5-methylcytidines; AGTGTTGAGTACCCAGTTCT (antisense eA*eG*eT*eG*eT*dT*dG*dA*dG*dT*dA*d[5mC]*d[5mC]*d[5mC]*dA*eG*eT*eT*e[5mC]*eT) | at least 20% | – | – | –
21 | ISIS 150680: 2′-MOE gapmer, phosphorothioate, 5-methylcytidines; CTCAAAGAACAGATCTGCTC (antisense e[5mC]*eT*e[5mC]*eA*eA*dA*dG*dA*dA*d[5mC]*dA*dG*dA*dT*d[5mC]*eT*eG*e[5mC]*eT*e[5mC]) | at least 20% | – | – | –
22 | ISIS 150681: 2′-MOE gapmer, phosphorothioate, 5-methylcytidines; TGGTTTTTAGCTCAAAGAAC (antisense eT*eG*eG*eT*eT*dT*dT*dT*dA*dG*d[5mC]*dT*d[5mC]*dA*dA*eA*eG*eA*eA*e[5mC]) | at least 20% | – | – | –
23 | ISIS 150682: 2′-MOE gapmer, phosphorothioate, 5-methylcytidines; GTACAGCACATGGTTTTAG | at least 20% | – | – | –
24 | ISIS 150687: 2′-MOE gapmer, phosphorothioate, 5-methylcytidines; GTCCAATTCCATTCCAGAAA (antisense eG*eT*e[5mC]*e[5mC]*eA*dA*dT*dT*d[5mC]*d[5mC]*dA*dT*dT*d[5mC]*d[5mC]*eA*eG*eA*eA*eA) | at least 20% | – | – | –
25 | ISIS 150688: 2′-MOE gapmer, phosphorothioate, 5-methylcytidines; CTTGGGCTATGTCCAATTCC (antisense e[5mC]*eT*eT*eG*eG*dG*d[5mC]*dT*dA*dT*dG*dT*d[5mC]*d[5mC]*dA*eA*eT*eT*e[5mC]*e[5mC]) | at least 20% | – | – | –
26 | ISIS 150689: 2′-MOE gapmer, phosphorothioate, 5-methylcytidines; CAAGGTTCTTTCTGTTCTTG (antisense e[5mC]*eA*eA*eG*eG*dT*dT*d[5mC]*dT*dT*dT*d[5mC]*dT*dG*dT*eT*e[5mC]*eT*eT*eG) | at least 20% | – | – | –
27 | ISIS 150690: 2′-MOE gapmer, phosphorothioate, 5-methylcytidines; CTGAAACCTCCAACCCCAGC | at least 20% | – | – | –
28 | ISIS 150692: 2′-MOE gapmer, phosphorothioate, 5-methylcytidines; GCAATATGAATCAACTTCAT (antisense eG*e[5mC]*eA*eA*eT*dA*dT*dG*dA*dA*dT*d[5mC]*dA*dA*d[5mC]*eT*eT*e[5mC]*eA*eT) | at least 20% | – | – | –
29 | ISIS 150693: 2′-MOE gapmer, phosphorothioate, 5-methylcytidines; ACTATGATGCAATATGAATC (antisense eA*e[5mC]*eT*eA*eT*dG*dA*dT*dG*d[5mC]*dA*dA*dT*dA*dT*eG*eA*eA*eT*e[5mC]) | at least 20% | – | – | –
30 | ISIS 150694: 2′-MOE gapmer, phosphorothioate, 5-methylcytidines; ATGTGATGCTTAAACAAAGC (antisense eA*eT*eG*eT*eG*dA*dT*dG*d[5mC]*dT*dT*dA*dA*dA*d[5mC]*eA*eA*eA*eG*e[5mC]) | at least 20% | – | – | –
31 | ISIS 150696: 2′-MOE gapmer, phosphorothioate, 5-methylcytidines; GCACTAAACCAAAATAGCTT (antisense eG*e[5mC]*eA*e[5mC]*eT*dA*dA*dA*d[5mC]*d[5mC]*dA*dA*dA*dA*dT*eA*eG*e[5mC]*eT*eT) | at least 20% | – | – | –
32 | ISIS 150698: 2′-MOE gapmer, phosphorothioate, 5-methylcytidines; GCAATTACAACAATTTAGGA (antisense eG*e[5mC]*eA*eA*eT*dT*dA*d[5mC]*dA*dA*d[5mC]*dA*dA*dT*dT*eT*eA*eG*eG*eA) | at least 20% | – | – | –
